Measured values from ChEMBL document CHEMBL1130755, “Synthesis of a new class of camptothecin derivatives, the long-chain fatty acid esters of 10-hydroxycamptothecin, as a potent prodrug candidate, and their in vitro metabolic conversion by carboxylesterases” (Bioorg Med Chem Lett, 1998).

Assays:
Liver carboxylesterase 1 = biological target: T1, Liver carboxylesterase 1 (Homo sapiens, UniProt P23141); test: Specific activity (hydrolysis) by purified carboxylesterase isozyme HU1 against microsomes in human liver
T1 sequence (P23141 whole entry): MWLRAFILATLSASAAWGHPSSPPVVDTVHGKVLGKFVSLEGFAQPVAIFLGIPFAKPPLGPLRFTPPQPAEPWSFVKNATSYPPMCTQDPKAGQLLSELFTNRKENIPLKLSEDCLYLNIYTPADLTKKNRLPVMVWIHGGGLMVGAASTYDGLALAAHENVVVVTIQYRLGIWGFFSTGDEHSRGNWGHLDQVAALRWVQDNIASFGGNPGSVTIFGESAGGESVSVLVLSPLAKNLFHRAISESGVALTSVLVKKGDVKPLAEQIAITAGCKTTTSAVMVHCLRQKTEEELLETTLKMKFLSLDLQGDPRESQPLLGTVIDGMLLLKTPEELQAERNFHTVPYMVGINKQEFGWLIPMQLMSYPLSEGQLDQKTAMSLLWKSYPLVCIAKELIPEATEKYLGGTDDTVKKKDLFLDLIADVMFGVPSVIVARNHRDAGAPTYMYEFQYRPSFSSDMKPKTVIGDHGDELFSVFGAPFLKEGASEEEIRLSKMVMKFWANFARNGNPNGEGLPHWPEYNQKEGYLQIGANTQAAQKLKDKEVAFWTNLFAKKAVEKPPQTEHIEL

Carboxylesterase 1E = biological target: T2, Carboxylesterase 1E (Rattus norvegicus, UniProt Q63108); test: Specific activity (hydrolysis) by purified carboxylesterase isozyme RH1 against microsomes in rat liver
T2 sequence (Q63108 whole entry): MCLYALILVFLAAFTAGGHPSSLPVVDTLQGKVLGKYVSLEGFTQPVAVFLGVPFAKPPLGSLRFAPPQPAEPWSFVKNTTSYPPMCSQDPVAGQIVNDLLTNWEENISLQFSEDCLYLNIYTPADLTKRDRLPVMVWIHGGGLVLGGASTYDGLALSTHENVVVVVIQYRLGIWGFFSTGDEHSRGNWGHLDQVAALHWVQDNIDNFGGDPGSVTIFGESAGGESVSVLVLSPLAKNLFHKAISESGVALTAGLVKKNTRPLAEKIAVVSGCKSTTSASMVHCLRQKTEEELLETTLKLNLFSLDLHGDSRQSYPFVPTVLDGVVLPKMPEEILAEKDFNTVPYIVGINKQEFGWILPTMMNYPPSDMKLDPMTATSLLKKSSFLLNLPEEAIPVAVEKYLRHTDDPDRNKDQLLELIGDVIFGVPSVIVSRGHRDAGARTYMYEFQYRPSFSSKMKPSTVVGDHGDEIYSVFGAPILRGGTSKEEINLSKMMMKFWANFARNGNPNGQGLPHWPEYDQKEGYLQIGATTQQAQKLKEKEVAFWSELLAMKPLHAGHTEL

[1] = tested on: Liver carboxylesterase 1 (Sus scrofa); test: Specific activity (hydrolysis) by purified carboxylesterase isozyme P1 against microsomes in pig liver

SMILES	Activity (Liver carboxylesterase 1) [nmol/min/mg]	Activity (Carboxylesterase 1E) [nmol/min/mg]	Activity [1] [nM/mg/min]
CCCCCCCCCCCCCCCCCCCC(=O)Oc1ccc2nc3c(cc2c1)Cn1c-3cc2c(c1=O)COC(=O)[C@]2(O)CC	1.07	0.183	0.854
CCCCCCCCCCCCCCCCCC(=O)Oc1ccc2nc3c(cc2c1)Cn1c-3cc2c(c1=O)COC(=O)[C@]2(O)CC	1.27	0.698	3.02
CCCCCCCCCCCCCCCC(=O)Oc1ccc2nc3c(cc2c1)Cn1c-3cc2c(c1=O)COC(=O)[C@]2(O)CC	1.58	2.33	9.13
CCc1c2c(nc3ccc(OC(=O)N4CCC(N5CCCCC5)CC4)cc13)-c1cc3c(c(=O)n1C2)COC(=O)[C@]3(O)CC [IRINOTECAN]		0.259	
CCCCCCCCCC(=O)Oc1ccc2nc3c(cc2c1)Cn1c-3cc2c(c1=O)COC(=O)[C@]2(O)CC	27.9	17.4	37.4
CCCCCCCCCCCC(=O)Oc1ccc2nc3c(cc2c1)Cn1c-3cc2c(c1=O)COC(=O)[C@]2(O)CC	15.3	19.1	42.1
